Each structure is given as a SMILES string.

In assay [1] the target is T1, Glutathione reductase, mitochondrial (Homo sapiens, UniProt P00390).
T1 sequence (P00390 whole entry): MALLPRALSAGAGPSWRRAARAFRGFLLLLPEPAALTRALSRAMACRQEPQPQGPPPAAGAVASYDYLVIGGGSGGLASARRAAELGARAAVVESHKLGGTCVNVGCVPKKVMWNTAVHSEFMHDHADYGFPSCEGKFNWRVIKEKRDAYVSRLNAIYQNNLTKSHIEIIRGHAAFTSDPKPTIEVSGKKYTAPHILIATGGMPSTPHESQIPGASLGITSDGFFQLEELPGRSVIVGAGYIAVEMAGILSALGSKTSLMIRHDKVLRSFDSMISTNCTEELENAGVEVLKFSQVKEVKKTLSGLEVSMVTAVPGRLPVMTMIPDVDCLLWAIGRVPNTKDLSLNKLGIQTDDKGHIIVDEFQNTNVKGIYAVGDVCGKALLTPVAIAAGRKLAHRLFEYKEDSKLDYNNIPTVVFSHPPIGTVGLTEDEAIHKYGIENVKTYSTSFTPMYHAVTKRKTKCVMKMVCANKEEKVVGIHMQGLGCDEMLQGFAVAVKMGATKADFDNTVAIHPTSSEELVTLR

Assay [2] deals with T1, Glutathione reductase, mitochondrial. As to the kind of experiment: Inhibition of human erythrocyte Glutathione reductase.
The target is the same in assay [3]. As to the kind of experiment: Non-Competitive inhibition of human erythrocyte Glutathione reductase using GSSG substrate by Lineweaver-Burk plot analysis.

`COC(=O)C1=C(C)NC(C)=C(C(=O)OC)C1c1ccccc1[N+](=O)[O-]` [NIFEDIPINE]: in assay [1], the Ki came to 17.4 µM. Besides, the IC50 in assay [2] came out at 23.4 µM.

`NCCCC[C@H](N)C(=O)O` [LYSINE] gave a Ki in assay [1] of 54.6 µM. This compound also showed an IC50 in assay [2] of 61.2 µM.

With `CC[C@H](CO)NCc1ccc([N+](=O)[O-])cc1`, the Ki in assay [1] was determined as 4.57 µM. The same compound returned a 50% inhibitory concentration (IC50) in assay [2] of 13.3 µM.

In turn, `N[C@@H](CCC(=O)O)C(=O)O` [GLUTAMIC ACID] returned a Ki in assay [1] of 42.7 µM. This compound had an IC50 in assay [2] of 53.7 µM.

In turn, `O=[N+]([O-])c1ccccc1` [NITROBENZENE] yielded a Ki in assay [1] of 274 µM. The IC50 in assay [2] amounted to 547 µM.

Take `CC(C)(C)OC(=O)N[C@@H](CCCCNC(=O)OCc1ccccc1Cl)C(=O)Oc1ccc([N+](=O)[O-])cc1`: in assay [2], the IC50 was 15.4 µM. In assay [3], this compound gave a Ki of 4.16 µM.

Consider `O=C(O)CC[C@H](NC(=O)c1ccc([N+](=O)[O-])cc1)C(=O)O`, for which the affinity in assay [1] corresponds to a Ki of 0.211 µM. The compound also returned an IC50 in assay [2] of 0.344 µM.

Usually Ki stands for the dissociation constant of the complex between target and ligand, obtained from inhibition or displacement. The term IC50 denotes the midpoint of a concentration-inhibition curve.

Source of the values: ChEMBL document CHEMBL1821674, “Design, synthesis and biological evaluation of novel nitroaromatic compounds as potent glutathione reductase inhibitors” (Bioorg Med Chem Lett, 2011).
